# Results reported in publication PMC8538783, “Green Oxidation of Amines by a Novel Cold-Adapted Monoamine Oxidase MAO P3 from Psychrophilic Fungi Pseudogymnoascus sp. P3” (Molecules, 2021).
# Values joined by “and” are separate entries in the source; they are usually repeats but may differ in a detail not shown here. Identical values can stand only once. Like-named read-outs stand apart in the source and are kept apart here.
# Assays:
# native MAO N = settings: cited from earlier work
# MAO P3 [1] = test: Effect of extra FAD in the reaction mixture on MAO P3 activity; format: biochemical, Pseudogymnoascus sp. P3; settings: 0.2 mM FAD in reaction mixture, compared to holoenzyme without supplementation of FAD
# Method: (§1) The activity of MAO P3 was measured by a colorimetric method which is based on the formation of orange-brownish tetraguaiacol in the presence of H2O2 and peroxidase (insert in Figure 2A). The reaction mixture contained 0.5 mL of the enzyme sample, 0.25 mL of 10 mM potassium phosphate buffer pH 7.2, 0.25 mL of 20 mM amine substrate (to identify a potential MAO producer, primary–n-butylamine, and secondary–6,6-dimethyl-3-azabicyclohexane, amines were used), 0.02 mL of peroxidase (90 U/mL), and 0.4 mL of 0.02 M guaiacol (all reagents from MerckMillipore, Burlington, MA, USA). The reaction mixture was incubated at 30 °C for 30 min.
# Reconstruction of flavoprotein MAO P3 was carried out in 10 mM potassium phosphate buffer pH 7.2 in a total volume of 5 mL, with different conditions of: FAD concentration (5, 10, 15, 20, 25, and 50 μM), temperature (5, 10, 15, 20, 25, and 30 °C), and time of incubation (from 10 min to 60 min). After incubation, extra FAD was removed by centrifugation at 5000 rpm, 4 °C, 20 min in Centricon concentrators of MWCO of 10 kDa (MerckMillipore, Burlington, MA, USA). The absorption spectrum was measured on a flat-bottom 96-well plate on a MultiScanGo plate reader (ThermoFisher Scientific, Waltham, MA, USA).
# MAO P3 [2] = test: Substrate specificity (Vmax, Km) of purified MAO P3, GC-MS; format: biochemical, Pseudogymnoascus sp. P3
# Method: (§2) Substrate specificity of MAO P3 was examined towards sixteen amine substrates (listed in Table 3) that differed in the number of carbons and various substitutions. Bioconversion was carried out in 5 mL glass tubes (Schott, Germany), where the total volume of the reaction was 2.5 mL and was comprised of 1 mL of MAO P3 (1 U/mL), where the cell-free extracts were used for the initial oxidation screening and the purified enzyme, for substrate specificity. An amount of 0.75 mL of a substrate (in the range of concentrations between 10 and 100 mM) was resuspended in 0.1 M potassium phosphate pH 7.2, and 0.75 mL of 10 mM potassium phosphate buffer pH 7.2. Initial oxidation screening was carried out for 4 h at 30 °C, 810 rpm. The substrate specificity was measured at 30 °C; reactions were carried out for 5 h, 810 rpm. In order to analyze the products of the bioconversion, samples were first neutralized by the addition of 0.25 mL of 1 M NaOH. An amount of 0.5 mL of dichloromethane was added to samples and incubated at room temperature with shaking for 1 min. The samples were centrifuged for 5 min, 5000 rpm, 4 °C. The organic phase was collected for the gas chromatography-mass spectrometry (GC-MS) analysis. The Km values were calculated based on […] curves (see the Supplementary Materials).
# (§3) GC-MS analyses were carried out on a Pegasus 4D (LECO, USA) apparatus, equipped with an Agilent 6890N gas chromatograph coupled with a time-of-flight mass spectrometer (LECO, Saint Joseph, MI, USA). Samples were injected with the GerstelMultiPurpose sampler (MPS 2). The GC was fitted with a BPX5 capillary column of 30 m × 0.25 mm × 0.25 µm (SGE). Helium was used as a carrier gas with a flow rate of 1.5 mL/min. The injector temperature was held at 250 °C. The oven temperature was initially held at 40 °C for 2 min, ramped up to 200 °C by 10 °C/min; the total run time was 20 min. The detector was operated in EI mode with the transfer line maintained at 280 °C. All substrates were purchased from MerckMillipore, USA, and quantified by GC analysis based on their peak areas and calibration curves prepared for each individual. GC-MS spectra are presented in the Supplementary Materials.
# Method S3. Determination of Km and Vmax values based on Lineweaver-Burk curves
# The double-reciprocal curve was create based on the inverse initial velocity as a function of the inverse substrate
# concentration. Curves were created for each amine substrate (Fig. S2), based on the results of GC-MS analysis (Paragraph
# Figure S4. The double-reciprocal curves for MAO P3 amines substrates: A. 3-azabicyclo[3.3.0]octane;
# B. hexamethyleneimine; C. 6,6-dimethyl-3-azabicyclohexane; D. cyclopentylamine; E. α-methylbenzylamine;
# F. pyrrolidine; G. sec-butylamine; H. indoline.
# (1 picture or pasted object on this page, not shown here)
# MAO P3 [3] = test: Initial oxidation screening: bioconversion of amine substrates by cell-free extract, GC-MS; format: biochemical, Pseudogymnoascus sp. P3; settings: for Rate of Oxidation: 10 mM substrate, 10 mM potassium phosphate buffer pH 7.2, cell-free intracellular extract of P3 strain, 4 h at 30 °C, relative to compound 9 = 100%
# Method: as §2
# as §3, with “Samples” for “GC-MS analyses were carried out on a Pegasus 4D (LECO, USA) apparatus, equipped with an Agilent 6890N gas chromatograph coupled with a time-of-flight mass spectrometer (LECO, Saint Joseph, MI, USA). Samples”, “The GC was fitted with a BPX5 capillary column of 30 m × 0.25 mm × 0.25 µm (SGE).” left out
# MAO P3 [4] = test: as above; format: biochemical, Pseudogymnoascus sp. P3; settings: 24 h of incubation at 30 °C with shaking
# MAO = test: Colorimetric MAO activity assay of intracellular protein extract of P3 strain; format: biochemical, Pseudogymnoascus sp. P3; settings: 30 °C, 30 min
# Method: as §1
# The absorbance of the samples was measured at 436 nm on the UV/visible spectrophotometer (UV-1800 Shimatdsu, Kyoto, Japan). A unit of enzyme activity was defined as the amount of enzyme that catalyzes the formation of 1.0 μmol of H2O2 per min.
# Figure 2 MAO biosynthesis in 14 psychrophilic fungi strains. The activity was measured towards a primary amine (n-butylamine) and a secondary amine (6,6-dimethyl-3-azabicyclohexane), for each substrate. The reaction was carried out at 30 °C for 30 min with continuous shaking in 10 mM potassium phosphate buffer […]. (A) Activity after the growth in the induction medium, without inoculation from a solid culture; insert: scheme of the measurement of MAO activity in psychrophilic fungi strains; absorbance of tetraguaiacol is measured at 436 nm. (B) Activity after the growth in the induction medium, with inoculation from a solid culture.
# MAO N D5 = system: MAO N D5; design: method as in PMID 20146293; settings: recombinant MAO N D5; cited from earlier work
# MAO A = system: MAO A; design: method as in PMID 11134050; settings: cited from earlier work
# MAO P3 [5] = test: Inhibition analysis of MAO P3 by clorgyline, colorimetric guaiacol/peroxidase assay; format: biochemical, Pseudogymnoascus sp. P3; settings: preincubated 30 min at 30 °C; substrate 6,6-dimethyl-3-azabicyclohexane
# Method: The enzyme was preincubated with different concentrations (from 0.1 to 10^−8 mM) of clorgyline (MerckMillipore, Burlington, MA, USA) for 30 min at 30 °C. MAO P3 activity was measured according to the above-mentioned procedure. Clorgyline solution (1 mM) was prepared in 10 mM potassium phosphate buffer pH 7.2.
# Pseudogymnoascus sp. P3 = format: cell-based
# Method: The 125 mL cultures were inoculated from the glycerol stocks. The strains were cultured at 20 °C for 14 days with shaking at 100 rpm in 0.5 L flasks. The growth medium was composed of 3% (w/v) glucose, 0.1% (w/v) KH2PO4, 0.05% (w/v) MgSO4, 0.05% (w/v) KCl, and 0.1% (w/v) NaNO3, which was replaced by 0.1% (v/v) of n-butylamine (MAO inducer) in the induction medium. The concentration of n-butylamine was optimized (tested concentrations: 0.01, 0.03, 0.05, 0.10, 0.15, 0.20, and 0.50%) to maximize the biosynthesis of MAO. The mycelium was collected by filtration, wet mass was weighed and used for further experiments.
# as §1
# [6] = purified MAO P3 1 U/mL, 0.1 M potassium phosphate buffer pH 7.2, 30 °C
# [7] = induction medium inoculated from glycerol stock (no solid preculture)
# [8] = inoculation from solid culture (7 days, 20 °C)
smiles,measurement,setting,value
NCCc1ccccc1 [2-phenethylamine],Km,native MAO N,100 µM
"Cc1cc2nc3c(=O)[nH]c(=O)nc-3n(C[C@H](O)[C@H](O)[C@H](O)COP(=O)(O)OP(=O)(O)OC[C@H]3O[C@@H](n4cnc5c(N)ncnc54)[C@H](O)[C@@H]3O)c2cc1C [FAD, flavin adenine dinucleotide]",change of MAO P3 activity,MAO P3 [1],increased two-fold
"CCC(C)N (stereo not drawn) [Substrate 1, sec-butylamine]",Km,MAO P3 [2]; [6],18000 µM
same,Vmax,MAO P3 [2]; [6],0.17 mM/h
same,Rate of Oxidation,MAO P3 [3],29%
"NC1CCCC1 [Substrate 2, cyclopentylamine]",Km,MAO P3 [2]; [6],8220 µM
same,Vmax,MAO P3 [2]; [6],0.47 mM/h
same,Rate of Oxidation,MAO P3 [3],31%
"C1CCNC1 [Substrate 3, pyrrolidine]",Km,MAO P3 [2]; [6],14300 µM
same,Vmax,MAO P3 [2]; [6],0.16 mM/h
same,Rate of Oxidation,MAO P3 [3],36%
"CN1CCCC1 [Substrate 4, 1-methylpyrrolidine]",oxidation/conversion by MAO P3 (in words),MAO P3 [3],no activity
same,Rate of Oxidation,MAO P3 [3],0%
same,conversion by MAO P3 after prolonged incubation (in words),MAO P3 [4],unconverted
"C1CCCNCC1 [Substrate 6, hexamethyleneimine]",Km,MAO P3 [2]; [6],2640 µM and 2560 µM
same,Vmax,MAO P3 [2]; [6],0.72 mM/h
same,Rate of Oxidation,MAO P3 [3],30%
"O=C1NC2C=CC1C2 (stereo not drawn) [Substrate 7, 2-azabicyclo[2.2.1]hept-5-en-3-one]",Rate of Oxidation,MAO P3 [3],0%
"c1ccncc1 [Substrate 8, pyridine]",Rate of Oxidation,MAO P3 [3],0%
"CC1(C)C2CNCC21 (stereo not drawn) [Substrate 9, 6,6-dimethyl-3-azabicyclo[3.1.0]hexane]",Km,MAO P3 [2]; [6],2400 µM
same,Vmax,MAO P3 [2]; [6],1.1 mM/h
same,MAO activity towards the amine,MAO; [7],959 ± 7.2 U/L
same,MAO activity towards the amine,MAO; [8],1470 ± 10.6 U/L
same,Rate of Oxidation,MAO P3 [3],100%
"C1CC2CNCC2C1 (stereo not drawn) [Substrate 10, 3-azabicyclo[3.3.0]octane]",Km,MAO P3 [2]; [6],10400 µM
same,Vmax,MAO P3 [2]; [6],0.24 mM/h
same,Rate of Oxidation,MAO P3 [3],67%
same,rate of initial oxidation,MAO N D5,16%
"C1CC[C@H]2CNC[C@H]2C1 [Substrate 11, cis-8-azabicyclo[4.3.0]nonane]",Rate of Oxidation,MAO P3 [3],0%
same,conversion by MAO P3 after prolonged incubation (in words),MAO P3 [4],unconverted
same,rate of initial oxidation,MAO N D5,19%
"c1ccc2c(c1)CCN2 [Substrate 12, indoline]",Km,MAO P3 [2]; pH 7.2,20400 µM
same,Vmax,MAO P3 [2]; [6],0.14 mM/h
same,Rate of Oxidation,MAO P3 [3],9%
"NCCN1CCCC1 [Substrate 13, 1-(2-aminoethyl)pyrrolidine]",oxidation/conversion by MAO P3 (in words),MAO P3 [3],no activity
same,Rate of Oxidation,MAO P3 [3],0%
same,conversion by MAO P3 after prolonged incubation (in words),MAO P3 [4],unconverted
"NC(c1ccccc1)c1ccccc1 [Substrate 14, benzylhydrylamine]",oxidation/conversion by MAO P3 (in words),MAO P3 [3],not able to oxidize
same,Rate of Oxidation,MAO P3 [3],0%
same,conversion by MAO P3 after prolonged incubation (in words),MAO P3 [4],unconverted
"NCCCCN [Substrate 15, putrescine]",oxidation/conversion by MAO P3 (in words),MAO P3 [3],not able to convert
same,Rate of Oxidation,MAO P3 [3],0%
"NCCCCNCCCN [Substrate 16, spermidine]",oxidation/conversion by MAO P3 (in words),MAO P3 [3],not able to convert
same,Rate of Oxidation,MAO P3 [3],0%
CCCCCN [amylamine],kcat,native MAO N,16.67 s⁻¹
NCc1ccccc1 [benzylamine],Km,native MAO N,240 µM
same,kcat,native MAO N,6.18 s⁻¹
C#CCN(C)CCCOc1ccc(Cl)cc1Cl [clorgyline],IC50,MAO A,1.2 nM
same,low concentration that inhibits MAO A,MAO A,10^−8 M
same,IC50,MAO P3 [5],18 nM
CCCCCCN [hexylamine],Km,native MAO N,200 µM
CCCCN [n-butylamine],Km,native MAO N,600 µM
same,MAO activity towards the amine,MAO; [7],910 ± 4.8 U/L
same,MAO activity towards the amine,MAO; [8],1350 ± 10.5 U/L
same,effect on the psychrophilic strains,Pseudogymnoascus sp. P3,acted deadly
same,Relative Activity of MAO P3,Pseudogymnoascus sp. P3; 0.01% n-butylamine in induction medium,6.4 ± 0.31%
same,Relative Activity of MAO P3,Pseudogymnoascus sp. P3; 0.03% n-butylamine in induction medium,19.9 ± 0.31%
same,Relative Activity of MAO P3,Pseudogymnoascus sp. P3; 0.05% n-butylamine in induction medium,30.7 ± 0.20%
same,Relative Activity of MAO P3,Pseudogymnoascus sp. P3; 0.10% n-butylamine in induction medium,100.0%
same,Relative Activity of MAO P3,Pseudogymnoascus sp. P3; 0.15% n-butylamine in induction medium,45.9 ± 0.34%
same,Relative Activity of MAO P3,Pseudogymnoascus sp. P3; 0.20% n-butylamine in induction medium,9.6 ± 0.20%
same,Relative Activity of MAO P3,Pseudogymnoascus sp. P3; 0.50% n-butylamine in induction medium,0.0%
CCCN [propylamine],Km,native MAO N,1600 µM
